Source: patent publication US20210177796A1, “COMPOSITION FOR PREVENTING OR TREATING INFLAMMATORY DISEASES, CONTAINING MARINE FUNGUS PENICILLIUM SP. SF-5859-DERIVED CURVULARIN-TYPE METABOLITES” (KOREA INSITITUTE OF OCEAN SCIENCE AND TECHNOLOGY, priority 2017, published 2021)
Like-named read-outs stand apart in the source and are kept apart here.

Assays:
Type in all cases: cell-based
RAW264.7 macrophages = assay: Cytotoxicity by MTT assay
Procedure: In the present example, the cytotoxicity of each of the compounds of Formula 1 to 4 was confirmed in RAW264.7 macrophages by MTT assay.
RAW264.7 macrophages were maintained at a density of 5×10^5 cells/mL in RPMI1640 medium supplemented with 10% heat-inactivated FBS, penicillin G (100 units/mL), streptomycin ([…]), and L-glutamine (2 mM), and were incubated at 37° C. in a humidified atmosphere containing 5% CO2. To determine cell viability, cells (1×10^5 cells/well in 96-well plates) were incubated with 3-(4,5-dimethylthiazol-2-yl)-2,5-diphenyltetrazolium bromide (MTT) at a final concentration of 0.5 mg/mL for 3 hours, and the formazan formed was dissolved in acidic 2-propanol. The optical density was measured at 540 nm with a microplate reader (BioRad, Hercules, Calif., USA). The optical density of the formazan formed in control (untreated) cells was considered to represent 100% viability.

[1] = test system: PGE2 production in LPS-treated RAW 264.7 macrophages; assay: Inhibition of PGE2 production in LPS-treated RAW264.7 macrophages, PGE2 ELISA kit; conditions: RAW 264.7 macrophages pre-treated 3 hours, then LPS (1 μg/mL) 24 hours
Text: RPMI1640, fetal bovine serum (FBS), and other tissue culture reagents were purchased from Gibco BRL Co. (Grand Island, N.Y., USA). All other chemicals were obtained from Sigma-Aldrich Co. (St. Louis, Mo., USA). Primary antibodies (COX-2: sc-1745; iNOS: sc-650; IκB-α: sc-371; p-IκB-α: sc-8404; p50: sc-7178; p65: sc-8008, Santa Cruz Biotechnology, Dallas, Tex., USA, p-ERK: #9101; ERK: #9102; p-JNK: #9251; JNK: #9252S; p-p38: #9211; p38: 9212S, Cell Signaling Technology, Danvers, Mass., USA) and secondary antibodies (mouse: ap124p; goat: ap106p; rabbit: ap132p, Millipore, Billerica Mass., USA) were used. Enzyme-linked immunosorbent assay (ELISA) kits for PGE2 were purchased from R and D Systems, Inc. (Minneapolis, Minn., USA).
(§1) In the present example, RAW264.7 macrophages were pre-treated for 3 hours in the medium containing non-toxic concentrations (Table 1) of each compound (Formula 1 to 4), and then LPS (1 μg/mL) was treated for 24 hours. According to the LPS stimulation of RAW264.7 macrophages, the production of NO and PGE2 was increased, and the effects of all compounds on the production levels of NO and PGE2 were evaluated by the Griess reaction and a PGE2 kit, respectively.

[2] = test system: NO production in LPS-treated RAW 264.7 macrophages; assay: Inhibition of NO (nitrite) production in LPS-treated RAW264.7 macrophages, Griess reaction; conditions: RAW 264.7 macrophages pre-treated 3 hours, then LPS (1 μg/mL) 24 hours
Procedure: As an indicator of NO production in RAW264.7 macrophages, production of nitrite, which is a stable end-product of NO oxidation, was evaluated. The concentration of nitrite in conditioned media was determined based on the Griess reaction.
as §1

NF-κB (p50 and p65) = assay: NF-κB activation: nuclear translocation of p50 and p65 in LPS-induced RAW264.7 macrophages; conditions: FIG. 2(a)
p38 = assay: LPS-induced p38 phosphorylation in RAW264.7 macrophages; conditions: LPS 30 minutes; FIG. 3(a)
Text: (§2) Mitogen-activated protein kinase (MAPK) pathways are known to be involved in the expression of pro-inflammatory cytokines in macrophages. Thus, the effect of the compound of Formula 3 on the LPS-induced phosphorylation of MAPK was examined.

COX-2 = COX-2 protein expression in LPS-stimulated RAW264.7 macrophages; conditions: pre-treated 3 hours, LPS 24 hours; FIG. 1(a)
Procedure: (§3) Therefore, the inventors of the present invention further tested whether the inhibitory effects of the compound of Formula 3 against NO and PGE2 productions are correlated with the protein expression of pro-inflammatory enzymes (e.g., iNOS or COX-2, respectively), which are known to catalyze the production of NO and PGEs in LPS-stimulated cells. RAW264.7 macrophages were pre-treated with the indicated concentrations of the compound of Formula 3 for 3 hours, and then stimulated with LPS for 24 hours. The presence of the compound of Formula 3 led to the attenuation of the excessive protein expression of iNOS and COX-2 in a dose-dependent manner (see FIG. 1(a)).

IL-6 = IL-6 mRNA expression in LPS-induced cells, RT-qPCR; conditions: pre-treated 3 hours, LPS (1 μg/mL) 6 hours; FIG. 1(c)
Procedure: (§4) In addition, upon stimulation by LPS, macrophages can trigger the production of pro-inflammatory cytokines such as TNF-α and ILs. The overproduction of these cytokines contributes to the pathogenesis of inflammatory diseases. Thus, the inventors of the present invention further evaluated the effects of the compound of Formula 3 on the mRNA expression of pro-inflammatory cytokines in the LPS-induced cells. The cells were pre-treated with indicated concentration for 3 hours, followed by LPS stimulation (1 μg/mL) for 6 hours. The mRNA expression of pro-inflammatory cytokines was determined by RT-qPCR.

IL-1β = IL-1β mRNA expression in LPS-induced cells, RT-qPCR; conditions: pre-treated 3 hours, LPS (1 μg/mL) 6 hours; FIG. 1(b)
Procedure: as §4

IκB-α = IκB-α phosphorylation and degradation in LPS-induced RAW264.7 macrophages; conditions: FIG. 2(b)
Procedure: (§5) In the present example, a NF-κB ELISA kit (Active Motif) was used to test the nuclear extracts and determine the degree of NF-κB binding. […] Furthermore, when the cells were treated with LPS alone, the phosphorylation level of IκB-α was increased, whereas the compound of Formula 3 attenuated this phosphorylation of IκB-α. In addition, the compound of Formula 3 blocked the degradation of IκB-α in a concentration-dependent manner (see FIG. 2(b)). In line with these, LPS-induced DNA binding activity of NF-κB was declined in the nuclear extracts of the cells co-treated with the compound of Formula 3 (see FIG. 2(c)).

NF-κB = assay: DNA binding activity of NF-κB in nuclear extracts, NF-κB ELISA kit; conditions: FIG. 2(c)
Procedure: as §5

iNOS = iNOS protein expression in LPS-stimulated RAW264.7 macrophages; conditions: pre-treated 3 hours, LPS 24 hours; FIG. 1(a)
Procedure: as §3

TNF-α = TNF-α mRNA expression in LPS-induced cells, RT-qPCR; conditions: pre-treated 3 hours, LPS (1 μg/mL) 6 hours; FIG. 1(d)
Procedure: as §4

[3] = test system: extracellular signal-regulated kinase (ERK); assay: LPS-induced ERK phosphorylation in RAW264.7 macrophages; conditions: LPS 30 minutes; FIG. 3(c)
Text: as §2

[4] = test system: c-Jun N-terminal kinase (JNK); assay: LPS-induced JNK phosphorylation in RAW264.7 macrophages; conditions: LPS 30 minutes; FIG. 3(b)
Text: as §2

Row | Compound | IC50 [1] | IC50 [2] | Cytotoxicity (μM): the maximum concentration not affecting cell viability (RAW264.7 macrophages; RAW264.7 macrophages, MTT) | further results
1 | 5,7-Di-O-acetylcurvularin [Formula 1e] | > 80 µM | 77.5 ± 9.3 µM |  | Cytotoxicity (μM): the maximum concentration not affecting cell viability (RAW264.7 macrophages): >80 µM
2 | 5,7-Di-O-methylcurvularin [Formula 1c] | 49.4 ± 14 µM | 60.6 ± 16.4 µM |  | Cytotoxicity (μM): the maximum concentration not affecting cell viability (RAW264.7 macrophages): >80 µM
3 | CC1CCCCCC(=O)c2c(O)cc(O)cc2CC(=O)O1 (stereo not drawn) [Formula 1a, curvularin] | 18.7 ± 4.9 µM | 18.1 ± 5.2 µM | 40 µM | 
4 | COc1cc(O)c2c(c1)CC(=O)O[C@@H](C)CCCCCC2=O [Formula 1b, 5-O-methylcurvularin] | 40.2 ± 5.1 µM | > 80 µM | >80 µM | 
5 | CC(=O)Oc1cc(O)c2c(c1)CC(=O)O[C@@H](C)CCCCCC2=O [Formula 1d, 5-O-acetylcurvularin] | 73.7 ± 17.1 µM | 46.9 ± 3.7 µM |  | Cytotoxicity (μM): the maximum concentration not affecting cell viability (RAW264.7 macrophages): >80 µM
6 | C[C@H]1CCC[C@@H](O)CC(=O)c2c(O)cc(O)cc2CC(=O)O1 [Formula 2a, (11R,15S)-11-hydroxycurvularin] | 15.6 ± 5.2 µM | 11.5 ± 2.7 µM | 40 µM | 
7 | C[C@H]1CCC[C@H](O)C(=O)c2c(O)cc(O)cc2CC(=O)O1 [Formula 2b, (11S,15S)-11-hydroxycurvularin] | 14.1 ± 4 µM | 7.2 ± 1.6 µM | 40 µM | 
8 | CO[C@@H]1CCC[C@H](C)OC(=O)Cc2cc(O)cc(O)c2C(=O)C1 [Formula 2c, (11R,15S)-11-methoxycurvularin] | 3 ± 1.3 µM | 2.6 ± 0.4 µM | 20 µM | 
9 | CO[C@H]1CCC[C@H](C)OC(=O)Cc2cc(O)cc(O)c2C1=O [Formula 2d, (11S,15S)-11-methoxycurvularin] | 6 ± 1.9 µM | 3.5 ± 0.5 µM | 20 µM | 
10 | C[C@H]1CCC/C=C/C(=O)c2c(O)cc(O)cc2CC(=O)O1 [Formula 3, (10E,15S)-10,11-dehydrocurvularin] |  |  | 20 µM | Nuclear translocation of p50 and p65 (NF-κB (p50 and p65)): dose-dependently suppressed; Phosphorylation of p38 (p38): did not suppress; Protein expression of COX-2 (COX-2): attenuation; mRNA expression of IL-6 (IL-6): significantly suppressed; IC50 ([1]; Mus musculus, RAW264.7): 2.7 ± 0.4 µM; mRNA expression of IL-1β (IL-1β): significantly suppressed; Degradation of IκB-α (IκB-α): blocked; Phosphorylation of IκB-α (IκB-α): attenuated; LPS-induced DNA binding activity of NF-κB (NF-κB): declined; IC50 ([2]; Mus musculus, RAW264.7): 1.9 ± 0.3 µM; Protein expression of iNOS (iNOS): attenuation; mRNA expression of TNF-α (TNF-α): significantly suppressed; Phosphorylation of ERK [3]: did not suppress; Phosphorylation of JNK [4]: did not suppress
11 | C[C@H]1CCC/C=C\C(=O)c2c(O)cc(O)cc2CC(=O)O1 [Formula 4, (10Z,15S)-10,11-dehydrocurvularin] |  |  | 20 µM | IC50 ([1]; Mus musculus, RAW264.7): 6.2 ± 1.1 µM; IC50 ([2]; Mus musculus, RAW264.7): 4.4 ± 0.8 µM
